The values that follow come from ChEMBL document CHEMBL5096176, “AAA ATPases as therapeutic targets: Structure, functions, and small-molecule inhibitors” (Eur J Med Chem, 2021).

Data set [1] is described as follows: Selectivity index, ratio of CC50 for MDCK cells to EC50 for Oseltamivir-resisitant Influenza A virus (A/North Carolina/39/2009 (H1N1)) infected in MDCK cells. It counts as toxicity, cell-based. To be noted: dog, read-out: Ratio CC50/EC50.
The next data set relates to Cytomegalovirus. Put plainly: Antiviral activity against human Cytomegalovirus infected in human fibroblast cells assessed as viral growth inhibition preincubated for 24 hrs with compound followed by viral infection by plaque assay. As to conditions: Human betaherpesvirus 5, Fibroblast. Format: functional, organism-based.
Data set [2] has as its system Influenza A virus. Put plainly: Antiviral activity against Influenza A virus (A/Texas/04/2009 (H1N1)) infected in MDCK cells over expressing ST6Gal I assessed as inhibition of viral replication by plaque assay. It counts as functional, organism-based.
Data set [3] deals with Influenza A virus. The data set is described as follows: Antiviral activity against Influenza A virus (A/Denmark/528/2009 (H1N1)) infected in MDCK cells over expressing ST6Gal I assessed as inhibition of viral replication by plaque assay. Format: functional, organism-based.
Data set [4] can be described thus: Selectivity index, ratio of CC50 for MDCK cells to EC50 for Influenza A virus (A/Texas/04/2009 (H1N1)) infected in MDCK cells. Format: toxicity, cell-based. As to conditions: dog, read-out: Ratio CC50/EC50.
The nature of data set [5]: Selectivity index, ratio of CC50 for MDCK cells to EC50 for Influenza A virus (A/Denmark/528/2009 (H1N1)) infected in MDCK cells. It counts as toxicity, cell-based. As to conditions: dog, read-out: Ratio CC50/EC50.
Another data set has as its system Huh-7. Put plainly: Anticancer activity against human Huh-7 cells assessed as inhibition of cell proliferation incubated for 4 days by MTS assay. It counts as functional, cell-based. As to conditions: Huh-7, 96 h.
The next data set deals with Hep 3B2. The data set is described as follows: Anticancer activity against human Hep3B cells assessed as inhibition of cell proliferation incubated for 4 days by MTS assay. It counts as functional, cell-based. As to conditions: 96 h.
The next data set has as its system HeLa. The data set is described as follows: Anticancer activity against human HeLa cells assessed as cell growth inhibition. It counts as functional, cell-based.
For data set [6], the system named is Schizosaccharomyces pombe. The data set is described as follows: Antifungal activity against Schizosaccharomyces pombe assessed as fungal growth inhibition incubated for 18 hrs by absorbance based assay. Format: functional.
The target of data set [7] is T1, Spastin (Homo sapiens, UniProt Q9UBP0).
T1 sequence (Q9UBP0 whole entry): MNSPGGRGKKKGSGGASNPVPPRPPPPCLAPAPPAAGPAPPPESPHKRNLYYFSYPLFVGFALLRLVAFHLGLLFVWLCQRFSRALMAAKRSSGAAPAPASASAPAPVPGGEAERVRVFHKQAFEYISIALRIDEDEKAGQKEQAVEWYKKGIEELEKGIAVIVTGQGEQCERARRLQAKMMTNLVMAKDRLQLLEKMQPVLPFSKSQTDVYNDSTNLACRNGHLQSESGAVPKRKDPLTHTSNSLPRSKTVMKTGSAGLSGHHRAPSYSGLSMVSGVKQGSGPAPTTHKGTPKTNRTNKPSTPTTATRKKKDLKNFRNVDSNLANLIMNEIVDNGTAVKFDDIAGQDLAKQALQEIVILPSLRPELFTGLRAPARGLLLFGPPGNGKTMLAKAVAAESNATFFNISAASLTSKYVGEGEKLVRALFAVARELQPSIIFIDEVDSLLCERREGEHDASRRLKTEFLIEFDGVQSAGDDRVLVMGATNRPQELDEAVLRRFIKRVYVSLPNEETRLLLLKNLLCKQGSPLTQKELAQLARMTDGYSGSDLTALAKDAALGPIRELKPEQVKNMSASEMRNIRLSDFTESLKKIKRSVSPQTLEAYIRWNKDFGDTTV
The data set is described as follows: Inhibition of human Spastin in presence of ATP.

The target of data set [8] is T2, Spastin (Drosophila melanogaster, UniProt Q8I0P1).
T2 sequence (Q8I0P1 whole entry): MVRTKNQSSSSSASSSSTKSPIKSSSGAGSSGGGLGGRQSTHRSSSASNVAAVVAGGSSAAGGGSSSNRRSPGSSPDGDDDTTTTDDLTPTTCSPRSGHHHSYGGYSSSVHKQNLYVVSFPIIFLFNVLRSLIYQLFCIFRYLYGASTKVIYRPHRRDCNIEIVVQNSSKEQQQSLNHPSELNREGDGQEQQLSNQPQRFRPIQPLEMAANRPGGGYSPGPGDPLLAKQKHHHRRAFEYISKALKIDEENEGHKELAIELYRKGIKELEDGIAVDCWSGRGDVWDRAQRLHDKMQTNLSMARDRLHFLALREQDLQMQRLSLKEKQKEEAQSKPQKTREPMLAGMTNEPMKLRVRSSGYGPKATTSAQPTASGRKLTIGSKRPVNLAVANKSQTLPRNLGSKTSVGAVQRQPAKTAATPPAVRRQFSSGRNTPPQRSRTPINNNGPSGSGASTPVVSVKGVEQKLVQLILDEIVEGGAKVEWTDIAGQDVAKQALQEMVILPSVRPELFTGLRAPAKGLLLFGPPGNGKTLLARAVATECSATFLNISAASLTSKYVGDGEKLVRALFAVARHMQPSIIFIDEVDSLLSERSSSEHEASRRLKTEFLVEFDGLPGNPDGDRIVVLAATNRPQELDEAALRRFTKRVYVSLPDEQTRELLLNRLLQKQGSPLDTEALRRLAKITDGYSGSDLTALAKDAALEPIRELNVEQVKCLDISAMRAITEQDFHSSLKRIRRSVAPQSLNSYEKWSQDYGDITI
The data set is described as follows: Inhibition of wild-type Drosophila melanogaster Spastin (209 to 758 residues) in presence of ATP by NADH-coupled fluorescence assay.

Data set [9] can be described thus: Inhibition of Drosophila melanogaster Spastin N527C mutant (209 to 758 residues) in presence of ATP by NADH-coupled fluorescence assay.
In data set [10] the target is T3, Transitional endoplasmic reticulum ATPase (Homo sapiens, UniProt P55072). The data set is described as follows: Inhibition of p97 (unknown origin) in presence of ATP by Biomol Green Reagent based assay.
Data set [11] deals with T3, Transitional endoplasmic reticulum ATPase. The data set is described as follows: Inhibition of p97 (unknown origin) incubated for 15 mins in presence of ATP by ADP Glo assay.

T3 sequence (P55072 whole entry): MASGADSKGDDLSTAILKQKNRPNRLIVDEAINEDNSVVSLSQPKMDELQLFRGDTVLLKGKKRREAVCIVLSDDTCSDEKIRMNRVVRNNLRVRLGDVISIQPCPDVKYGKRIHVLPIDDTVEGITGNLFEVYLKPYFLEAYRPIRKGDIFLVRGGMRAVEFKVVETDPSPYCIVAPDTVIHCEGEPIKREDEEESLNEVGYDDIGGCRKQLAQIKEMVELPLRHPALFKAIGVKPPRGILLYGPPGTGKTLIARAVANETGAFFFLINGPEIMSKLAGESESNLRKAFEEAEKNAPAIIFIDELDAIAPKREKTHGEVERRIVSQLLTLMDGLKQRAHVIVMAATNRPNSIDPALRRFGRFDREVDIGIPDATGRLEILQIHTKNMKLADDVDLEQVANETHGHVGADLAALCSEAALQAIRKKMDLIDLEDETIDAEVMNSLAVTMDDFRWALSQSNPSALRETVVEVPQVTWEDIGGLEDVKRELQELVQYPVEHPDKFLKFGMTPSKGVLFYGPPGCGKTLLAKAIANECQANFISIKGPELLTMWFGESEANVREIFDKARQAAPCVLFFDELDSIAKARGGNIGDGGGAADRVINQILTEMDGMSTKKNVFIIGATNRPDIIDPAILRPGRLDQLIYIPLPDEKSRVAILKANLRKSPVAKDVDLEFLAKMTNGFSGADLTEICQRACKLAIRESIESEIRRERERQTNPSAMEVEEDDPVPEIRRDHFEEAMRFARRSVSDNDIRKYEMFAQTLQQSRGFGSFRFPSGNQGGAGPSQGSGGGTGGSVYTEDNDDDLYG

For `Cc1cc(OCc2nnc(SC3CCCC3)n2-c2cccnc2)ccc1-c1ccc(S(C)(=O)=O)cc1`, the selectivity ratio in data set [1], in [4] and in [5] was 50 each time. Moreover, the IC50 in the data set with Cytomegalovirus was 130 nM. The EC50 in the data set on Influenza A virus [2] and in the data set on Influenza A virus [3] was 30 nM throughout. As for `O=c1[nH]c2ccccc2n1C1CCN(Cc2ccc(-c3nc4cc5[nH]cnc5cc4nc3-c3ccccc3)cc2)CC1`, the IC50 is 4000 nM with Huh-7 and 3500 nM in the data set on Hep 3B2. With `O=C(CCl)Nc1cccc(NC2=NS(=O)(=O)c3ccccc32)c1`, the IC50 in the data set on HeLa turned out to be 3000 nM. As to `C=C(C)CSc1nnc2c(n1)[nH]c1cc(Br)ccc12`, in data set [6], the GI50 worked out at 14 nM. Same read-out and setting: under `C=C(C)CSc1nnc2c(n1)[nH]c1ccccc12` stands 136 nM. As to `CC(C)[C@@H]1CN(c2nc(Nc3cc(C(C)(C)C)[nH]n3)c3cc[nH]c3n2)CCN1`, the IC50 on Spastin [7] is 99 nM. With `C[C@@H]1CNCCN1c1nc(Nc2cc(C(C)(C)C)[nH]n2)c2cccc(F)c2n1`, the figures for the IC50 (at Spastin [8]; in data set [9]) were 4840 nM and 230 nM, respectively.

Turning to `C[C@@H]1CNCCN1c1nc(Nc2cc(C(C)(C)C)[nH]n2)c2ccccc2n1`, the IC50 on Spastin [7] turned out to be 4400 nM. For the compound `Cc1cc(OCc2cnc(SC3CCCC3)n2-c2cccnc2)ccc1C#CCCNC(C)C`, in [10], the IC50 came to 7 nM. Regarding `Nc1nc(O)c2ncn(COC(CO)CO)c2n1` [GANCICLOVIR], the IC50 in data set [11] was 1300 nM.

On to `CC(=O)c1c(O)c(C)c(O)c(Cc2c(O)c3c(c(C(=O)/C=C/c4ccccc4)c2O)OC(C)(C)C=C3)c1O` [ROTTLERIN], for which the IC50 in the data set on Huh-7 is 570 nM; in the data set with Hep 3B2, 250 nM.
